Measured values taken from patent US6649623B1, “Cyclic amine derivatives and use thereof” (Shionogi & Co., Ltd., priority 1999, dated 2003).
Like-named read-outs stand apart in the source and are kept apart here.

Tests used:
KK-Ay mouse [1] = assay: 7-day subcutaneous administration to KK-Ay mouse: body weight, food intake, blood glucose and insulin; assay type: in vivo; details: 80 mg/kg s.c. for 7 days; for response vs control in vivo at 80 mg/kg: sc, 192 h, male KK-Ay mouse, average; for food intake (in words): KK-Ay mouse
Procedure: After 80 mg/kg of the present compound was administered subcutaneously for 7 days to 7-8 week aged male KK-Ay mouse (n=5˜7, CLEA JAPAN, INC), the amount of food intake from seventh day to eighth day, and body weight of eighth day were measured. For a control group, physiological saline was used. After the body weight was measured, the blood was collected from abdominal aorta by a syringe containing 50 U heparin and centrifuged 12,000×g for five min. Glucose in blood was measured by New Blood.Sugar.Test (Boehringer Ingelheim) and insulin was measured by Insulin-EIA Test (GLAOZYME). Each value is an average value and represented by percent to each value of eighth days in the control group. As to the compounds of and after Example 13, each corresponding hydrochloride was used.

KK-Ay mouse [2] = assay: Plasma leptin concentration in KK-Ay mouse (mouse leptin RIA kit); assay type: in vivo; details: 40 mg/kg s.c., after 24 hours, saline group 26.7±1.9 ng/ml
Procedure: The compound 3cs of Example 3 (40 mg/kg ) was administered subcutaneously to KK-Ay mouse. After 24 hours, the concentration of leptin in plasma was measured by using mouse leptin RIA measuring kit (Linco). The blood was collected from abdominal aorta by a syringe containing 50 U heparin and centrifuged 12,000×g for 5 min to give plasma.

[3] = body weight of eighth day, percent to value of control group (physiological saline), read-out: Body weight
[4] = food intake from seventh to eighth day, percent to value of control group, read-out: Food intake
[5] = glucose in blood on eighth day, percent to value of control group, read-out: Glucose
[6] = insulin in blood on eighth day, percent to value of control group, read-out: Insulin

| Structure (SMILES) | response vs control in vivo at 80 mg/kg (KK-Ay mouse [1]; [3]) [%] | response vs control in vivo at 80 mg/kg (KK-Ay mouse [1]; [4]) [%] | response vs control in vivo at 80 mg/kg (KK-Ay mouse [1]; [5]) [%] | response vs control in vivo at 80 mg/kg (KK-Ay mouse [1]; [6]) [%] | food intake (in words) (KK-Ay mouse [1]) | concentration of leptin in plasma (KK-Ay mouse [2]) [ng/mL] |
| --- | --- | --- | --- | --- | --- | --- |
| Fc1ccc(OCCCN2CC=CCC2)c(F)c1 [Example 1, 1-[3-(2,4-Difluoro-phenoxy)-propyl]-1,2,3,6-tetrahydro-pyridine] | 85 | 76 | 56 | 12 | – | – |
| Brc1ccc(OCCCN2CC=CCC2)c(Br)c1 [Example 2, 1-[3-(2,4-Dibromo-phenoxy)-propyl]-1,2,3,6-tetrahydro-pyridine] | 93 | 100 | 79 | 41 | little repressed | – |
| Clc1ccc(OCCCN2CC=CCC2)cc1Cl [Example 3, 1-[3-(3,4-Dichloro-phenoxy)-propyl]-1,2,3,6-tetrahydro-pyridine] | 84 | 82 | 73 | 49 | little repressed | 44.8 ± 5.2 |
| Clc1cccc(OCCCN2CC=CCC2)c1 [Example 4, 1-[3-(3-Chlorophenoxy)-propyl]-1,2,3,6-tetrahydro-pyridine] | 87 | 79 | 84 | 47 | – | – |
| COc1cccc(OCCCN2CC=CCC2)c1 [Example 5, 1-[3-(3-Methoxy-phenoxy)-propyl]-1,2,3,6-tetrahydro-pyridine] | 94 | 88 | 62 | 38 | – | – |
| Clc1ccc(OCCCN2CC=CCC2)c(Cl)c1 [Example 6, 1-[3-(2,4-Dichloro-phenoxy)-propyl]-1,2,3,6-tetrahydro-pyridine] | 85 | 84 | 76 | 32 | little repressed | – |
| Clc1ccc(OCCCN2CC=CCC2)c(Cl)c1Cl [Example 7, 1-[3-(2,3,4-Trichloro-phenoxy)-propyl]-1,2,3,6-tetrahydro-pyridine] | 83 | 78 | 72 | 51 | – | – |
| Clc1ccc(COCCCN2CC=CCC2)cc1Cl [Example 8, 1-[3-(3,4-Dichloro-benzyloxy)-propyl]-1,2,3,6-tetrahydro-pyridine] | 94 | 96 | 78 | 31 | – | – |
| Clc1ccc(OCCN2CC=CCC2)cc1Cl [Example 9, 1-[2-(3,4-Dichloro-phenoxy)-ethyl]-1,2,3,6-tetrahydro-pyridine] | 87 | 83 | 71 | 53 | – | – |
| Clc1ccc(OCCCCN2CC=CCC2)cc1Cl [Example 10, 1-[4-(3,4-Dichloro-phenoxy)-butyl]-1,2,3,6-tetrahydro-pyridine] | 94 | 82 | 87 | 31 | – | – |
| Clc1ccc(NCCCN2CC=CCC2)cc1Cl [Example 11, (3,4-Dichlorophenyl)-[3-(3,6-dihydro-2-H-pyridin-1-yl)propyl]-amine] | 94 | 92 | 93 | 74 | – | – |
| C1=CCN(CCCOc2ccc3sccc3c2)CC1 [Example 17] | 94 | 84 | 99 | 84 | – | – |
| Clc1cc(Cl)cc(OCCCN2CC=CCC2)c1 [Example 21] | 89 | 74 | 80 | 53 | – | – |
| Cc1cc(OCCCN2CC=CCC2)ccc1F [Example 23] | 89 | 76 | 67 | 91 | – | – |
| Cc1ccc(OCCCN2CC=CCC2)c(Cl)c1 [Example 25] | 90 | 73 | 58 | 63 | – | – |
| Cc1ccc(OCCCN2CC=CCC2)cc1C [Example 27] | 93 | 77 | 87 | 42 | – | – |
| Brc1ccc(-c2ccc(OCCCN3CC=CCC3)cc2)cc1 [Example 30] | 95 | 73 | 62 | 50 | – | – |
| Fc1ccc(OCCCN2CC=CCC2)cc1F [Example 32] | 92 | 85 | 73 | 69 | – | – |
| FC(F)(F)c1ccc(COc2ccc(OCCCN3CC=CCC3)cc2Cl)cc1 [Example 33] | 93 | 72 | 54 | 44 | – | – |
| Fc1cccc(F)c1OCCCN1CC=CCC1 [Example 36] | 86 | 75 | 61 | 54 | – | – |
| FC(F)(F)c1cccc(OCCCN2CC=CCC2)c1 [Example 39] | 95 | 78 | 70 | 52 | – | – |
| FC(F)(F)c1cc(OCCCN2CC=CCC2)cc(C(F)(F)F)c1 [Example 41] | 88 | 77 | 56 | 48 | – | – |
| FC(F)(F)c1ccc(Oc2ccc(OCCCN3CC=CCC3)cc2)cc1 [Example 44] | 82 | 59 | 54 | 21 | – | – |
| Cc1ccc(F)c(OCCCN2CC=CCC2)c1 [Example 45] | 94 | 82 | 79 | 70 | – | – |
| Fc1cc(F)c(OCCCN2CC=CCC2)c(F)c1 [Example 46] | 90 | 91 | 58 | 53 | – | – |
| CC(C)(C)c1cccc(OCCCN2CC=CCC2)c1 [Example 49] | 91 | 80 | 56 | 73 | – | – |
